Reference: article PMC13469122, “Structural and mechanistic insights into primer synthesis initiation by DNA primase” (Nature Communications, 2026)

Columns and labels:
[1] = molecular target: T1, HBD (helix bundle domain) of pRN1 primase (Saccharolobus islandicus, UniProt Q54324); test: solution NMR; assay type: binding
T1 construct: Helix bundle domain 261-370 plus linker 256-260; residual GHM (253-255) after TEV cleavage of N-terminal His6; E. coli BL21(DE3) CodonPlus, pET28c

[2] = molecular target: T2, primase (pRN1 primase, residues 40-370) (Saccharolobus islandicus, UniProt Q54324); test: solid-state hPH NMR; assay type: binding; conditions: with DNA^CT; triphosphate at NTP^S site
T2 construct: Catalytic domain, linker and helix bundle domain, residues 40-370; C-terminal His6 without cleavage site; E. coli BL21(DE3) CodonPlus, pET28c

[3] = molecular target: T3, primase (pRN1 primase, residues 40-370) (Saccharolobus islandicus, UniProt Q54324, H145A); test: solid-state hPH NMR (also NHHP, CHHP); assay type: binding; conditions: with DNA^CT and ATP^N, 309 K; NTP^S site
T3 construct: Catalytic domain, linker and helix bundle domain, residues 40-370; C-terminal His6 without cleavage site; E. coli BL21(DE3) CodonPlus, pET28c

[4] = molecular target: T4, pRN1 primase H145A (Sulfolobus islandicus plasmid pRN1, UniProt Q54324 40-370, H145A); test: NMR (solid-state hPH, NHHP, CHHP); ATPN + dGTPC; 25 mM sodium phosphate, 50 mM NaCl, 10 mM MgCl2, pH 7.0; ITC and HBD NMR 298 K, primase NMR 313 K; conditions: protein: recombinant; tags: C-terminal His6, not cleaved; single strand
T4 sequence: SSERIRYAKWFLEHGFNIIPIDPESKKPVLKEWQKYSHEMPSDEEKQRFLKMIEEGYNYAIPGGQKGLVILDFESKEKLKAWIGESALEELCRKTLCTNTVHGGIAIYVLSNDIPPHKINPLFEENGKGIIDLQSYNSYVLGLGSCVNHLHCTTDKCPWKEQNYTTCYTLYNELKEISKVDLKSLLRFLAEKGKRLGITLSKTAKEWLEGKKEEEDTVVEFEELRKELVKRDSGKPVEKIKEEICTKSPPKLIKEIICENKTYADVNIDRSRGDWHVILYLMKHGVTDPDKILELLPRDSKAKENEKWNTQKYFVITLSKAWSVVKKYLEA

[5] = molecular target: T5, pRN1 primase helix bundle domain (HBD) (Sulfolobus islandicus plasmid pRN1, UniProt Q54324 256-370); test: ITC; 1 mM dGTP, 10 mM Mg2+; Kd not printed in the material; 25 mM sodium phosphate, 50 mM NaCl, 10 mM MgCl2, pH 7.0; ITC and HBD NMR 298 K, primase NMR 313 K; conditions: protein: recombinant; tags: non-native GHM (numbered 253-255) left after TEV cleavage of N-terminal His6; single strand
T5 sequence: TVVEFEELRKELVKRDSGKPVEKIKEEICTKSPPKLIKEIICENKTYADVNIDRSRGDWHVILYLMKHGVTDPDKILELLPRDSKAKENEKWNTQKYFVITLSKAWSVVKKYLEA

T2 sequence (Q54324 entry or part of it): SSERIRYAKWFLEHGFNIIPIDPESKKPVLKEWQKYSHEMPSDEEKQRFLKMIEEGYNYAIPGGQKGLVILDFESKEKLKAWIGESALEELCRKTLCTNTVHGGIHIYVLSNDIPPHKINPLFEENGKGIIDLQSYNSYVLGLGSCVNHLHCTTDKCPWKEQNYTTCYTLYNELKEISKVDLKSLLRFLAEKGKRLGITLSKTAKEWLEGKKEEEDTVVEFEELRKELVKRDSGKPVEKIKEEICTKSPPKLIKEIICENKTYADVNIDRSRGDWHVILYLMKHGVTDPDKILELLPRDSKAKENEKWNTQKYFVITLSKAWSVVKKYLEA

Nc1ncnc2c1ncn2[C@@H]1O[C@H](COP(=O)(O)OP(=O)(O)OP(=O)(O)O)[C@@H](O)[C@H]1O [ATP]
solution NMR ([1]; with DNA^CT and dGTP, NTP^W site (displaced from NTP^S site by dGTP)): the second ATP remains bound at the NTP^W site without base-pairing with T2

Nc1nc2c(ncn2[C@H]2C[C@H](O)[C@@H](COP(=O)(O)OP(=O)(O)OP(=O)(O)O)O2)c(=O)[nH]1 [dGTP]
solution NMR ([1]; with DNA^CT and ATP, NTP^S site): dGTP displaces ATP at the NTP^S site to base-pair with C1

Nc1nc2c(ncn2[C@H]2C[C@H](O)[C@@H](COP(=O)(O)O[C@H]3[C@@H](O)[C@H](n4cnc5c(N)ncnc54)O[C@@H]3COP(=O)(O)OP(=O)(O)NP(=O)(O)O)O2)c(=O)[nH]1
solid-state hPH NMR [2]: the solid-state hPH NMR spectrum of the primase-DNA^CT-pNHppApG complex

Nc1nc2c(ncn2[C@H]2C[C@H](O)[C@@H](COP(=O)(O)OP(=O)(O)CP(=O)(O)O)O2)c(=O)[nH]1 [dGTP^C]
solid-state hPH NMR (also NHHP, CHHP) [3]: ATP^N binds at the NTP^W site, while dGTP^C occupies the NTP^S site

B1: DNACT (ssDNA)
DNA: CTGTGCTCA
binding result [4]: binds | binding signal [5]: ~5 fold tighter GTG recognition than with ATP
